This note sets out measurements from ChEMBL document CHEMBL1201862, “PubChem BioAssay data set” (2004).

The source made the active and inactive calls.

Data set [1] can be described thus: control 3'UTR Renilla luciferase suppression, dose response, counter-screen for Shn3 inhibitor project, cell-based, Clone20-Shn3RL, cherry-picked (AID 624133). Format: functional.
A short description of data set [2]: HepG2 cell cytotoxicity, dose response, cytotoxicity control for Shn3 inhibitor project, CellTiter-Glo, cherry-picked (AID 624134). It is filed as functional, cell-based.
Data set [3] is described as follows: Shn3 3'UTR reporter inhibitors, dose response, cell-based, Clone20 osteoblasts, firefly luciferase, cherry-picked (AID 624132).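 Also: firefly luciferase luminescence from reporter carrying the Shn3 3'UTR in osteoblasts.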 It is filed as functional.
Data set [4] in a line: Luminescence Cell-Based Dose Confirmation HTS to Identify Inhibitors of Platelet Dense Granule Release. [Related pubchem assays: 1663 (Primary HTS), 1678 (Summary of Project)]. Format: functional.
Data set [5] has as its target Luciferin 4-monooxygenase (Photinus pyralis, UniProt P08659). Put plainly: firefly luciferase enzyme inhibitors, dose response, biochemical, luminescence (AID 1891).
Data set [6] has as its target Cytochrome P450 3A4 (Homo sapiens, UniProt P08684).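 Also: CYP3A4 tested as one member of a cytochrome P450 panel screen.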
The target in data set [7] is Cytochrome P450 2C19 (Homo sapiens, UniProt P33261). Description: Cytochrome panel assay with activity outcomes. Panel member name: p450-cyp2c19 Compounds with AC50 equal or less than 10 uM are considered active. Format: functional.
Data set [8] concerns the target Cytochrome P450 2D6 (Homo sapiens, UniProt P10635).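 Also: CYP2D6 member of a cytochrome P450 panel assay.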
Data set [9] is described as follows: inhibitors of SNCA 5'UTR-driven reporter translation, confirmation, H4 neuroglioma cells, luminescence (AID 1988). Format: functional, cell-based.
Data set [10] is described as follows: Luminescence Cell-Based Dose Response HTS to Identify Inhibitors of 5'UTR Stem-Loop Driven Prion Protein mRNA Translation in H4 Neuroglioblastoma Cells. [Related pubchem assays: 1827 (Project Summary), 1813 (Primary HTS)]. It is filed as functional.
Data set [11] has as its target T1, Replicative DNA helicase DnaB (Mycobacterium tuberculosis, UniProt P9WMR3).
T1 sequence (P9WMR3 whole entry): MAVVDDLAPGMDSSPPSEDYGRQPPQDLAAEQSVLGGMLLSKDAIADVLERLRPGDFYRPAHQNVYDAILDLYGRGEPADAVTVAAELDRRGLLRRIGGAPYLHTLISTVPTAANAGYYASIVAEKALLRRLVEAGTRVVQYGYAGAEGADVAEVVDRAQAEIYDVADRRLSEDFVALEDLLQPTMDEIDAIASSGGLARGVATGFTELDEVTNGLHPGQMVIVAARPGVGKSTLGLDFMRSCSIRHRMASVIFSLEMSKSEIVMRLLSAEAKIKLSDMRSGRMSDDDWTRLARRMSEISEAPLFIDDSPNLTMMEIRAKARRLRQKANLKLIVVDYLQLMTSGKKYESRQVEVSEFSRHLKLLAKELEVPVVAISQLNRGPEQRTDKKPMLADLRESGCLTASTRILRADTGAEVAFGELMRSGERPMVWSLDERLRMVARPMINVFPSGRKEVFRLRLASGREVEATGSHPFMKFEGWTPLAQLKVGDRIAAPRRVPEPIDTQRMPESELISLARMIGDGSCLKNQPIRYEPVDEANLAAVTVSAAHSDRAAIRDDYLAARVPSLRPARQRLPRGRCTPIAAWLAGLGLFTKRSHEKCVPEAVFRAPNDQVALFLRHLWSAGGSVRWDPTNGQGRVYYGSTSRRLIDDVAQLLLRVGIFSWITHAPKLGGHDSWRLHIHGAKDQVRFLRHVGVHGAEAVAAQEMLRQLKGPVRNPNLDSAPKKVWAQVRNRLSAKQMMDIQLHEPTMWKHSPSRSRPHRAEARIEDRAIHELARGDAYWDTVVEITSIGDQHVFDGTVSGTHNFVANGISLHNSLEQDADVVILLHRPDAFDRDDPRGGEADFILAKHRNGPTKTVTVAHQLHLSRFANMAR
Put plainly: DnaB intein splicing inhibitors, dose response, biochemical, cell-free fluorescence (AID 449749). It is filed as functional.

Data set [12] deals with T2, Protein RecA (Mycobacterium tuberculosis, UniProt P9WHJ3).
T2 sequence (P9WHJ3 whole entry): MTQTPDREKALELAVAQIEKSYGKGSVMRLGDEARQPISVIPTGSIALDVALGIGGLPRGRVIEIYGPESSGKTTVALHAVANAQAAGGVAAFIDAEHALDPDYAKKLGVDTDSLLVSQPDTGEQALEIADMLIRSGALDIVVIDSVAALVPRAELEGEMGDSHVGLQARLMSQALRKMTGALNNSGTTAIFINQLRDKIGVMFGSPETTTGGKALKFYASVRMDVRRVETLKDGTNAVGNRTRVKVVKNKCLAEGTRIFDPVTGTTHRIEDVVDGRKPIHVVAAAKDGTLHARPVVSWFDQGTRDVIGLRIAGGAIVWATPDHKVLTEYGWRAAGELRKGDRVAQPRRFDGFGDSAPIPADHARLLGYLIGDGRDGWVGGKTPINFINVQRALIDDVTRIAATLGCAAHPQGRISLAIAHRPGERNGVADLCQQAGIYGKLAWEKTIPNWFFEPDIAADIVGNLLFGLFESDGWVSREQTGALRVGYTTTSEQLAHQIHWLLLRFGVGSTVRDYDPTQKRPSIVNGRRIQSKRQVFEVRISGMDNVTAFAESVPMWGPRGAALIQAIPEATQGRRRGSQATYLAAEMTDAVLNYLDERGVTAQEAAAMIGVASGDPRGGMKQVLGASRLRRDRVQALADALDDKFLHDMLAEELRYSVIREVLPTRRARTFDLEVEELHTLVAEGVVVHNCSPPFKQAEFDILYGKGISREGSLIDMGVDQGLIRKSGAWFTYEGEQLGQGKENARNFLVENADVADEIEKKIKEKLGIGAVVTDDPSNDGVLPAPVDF
Description: Fluorescence Cell-Free Homogeneous Dose Retest to Identify Inhibitors of RecA-Intein Splicing Activity. [Related pubchem assays (depositor defined):AID2097, AID2223, AID489010, AID492950]. It is filed as functional.

The nature of data set [13]: cytotoxicity toward NIH3T3 fibroblasts, dose response, counter-screen, cell-based, ATP luminescence, mouse fibroblasts (AID 2010).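 Also: cells exposed to compound for about 90 hours before reading.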 Format: functional.
Data set [14] in a line: inhibitors of intracellular T. cruzi replication, confirmation, NIH3T3 host cells, beta-gal luminescence (AID 2044).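 Also: intracellular parasites grown in NIH/3T3 mouse fibroblasts as host cells; luminescent beta-galactosidase reporter signal from transgenic T. cruzi replicating inside host cells; inhibitors lower the luminescence signal.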 It is filed as functional, cell-based.
Data set [15] addresses T3, Cytochrome P450 1A2 (Homo sapiens, UniProt P05177).
T3 sequence (P05177 whole entry): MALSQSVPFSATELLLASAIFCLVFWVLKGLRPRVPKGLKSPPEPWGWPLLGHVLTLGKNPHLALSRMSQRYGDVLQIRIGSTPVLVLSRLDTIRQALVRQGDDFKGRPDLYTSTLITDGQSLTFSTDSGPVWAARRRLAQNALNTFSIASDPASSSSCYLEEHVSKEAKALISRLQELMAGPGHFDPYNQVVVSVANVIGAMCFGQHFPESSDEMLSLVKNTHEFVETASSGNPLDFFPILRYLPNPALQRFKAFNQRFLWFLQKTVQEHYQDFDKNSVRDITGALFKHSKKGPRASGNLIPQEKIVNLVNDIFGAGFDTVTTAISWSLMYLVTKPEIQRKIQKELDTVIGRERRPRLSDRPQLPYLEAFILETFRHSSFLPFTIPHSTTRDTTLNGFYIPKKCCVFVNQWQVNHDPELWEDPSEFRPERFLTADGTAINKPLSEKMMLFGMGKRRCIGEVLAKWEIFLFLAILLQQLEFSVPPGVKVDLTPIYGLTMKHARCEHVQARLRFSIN

The nature of data set [16]: Luminescence Cell-Based Dose Confirmation HTS to Identify Activators of 5'UTR Stem-Loop Driven Alpha-Synuclein mRNA Translation in H4 Neuroglioblastoma Cells. [Related pubchem assays: 1829 (Project Summary), 1814 (Primary HTS)]. Format: functional.
A short description of data set [17]: Luminescence Cell-Based Dose Response HTS to Identify Activators of Luciferase Translation or Activity in H4 […] Cells. [Related pubchem assays: 1829 (Project Summary), 1814 (Primary HTS)]. It is filed as functional.
In data set [18] the test system is H4. Put plainly: Luminescence Cell-Based Dose Response HTS to Identify Activators of 5'UTR Stem-Loop Driven Prion Protein mRNA Translation in H4 Neuroglioblastoma Cells. [Related pubchem assays: 1829 (Project Summary), 1814 (Primary HTS)]. It is filed as functional. As to conditions: Homo sapiens.

Chain of Luciferin 4-monooxygenase (P08659 whole entry): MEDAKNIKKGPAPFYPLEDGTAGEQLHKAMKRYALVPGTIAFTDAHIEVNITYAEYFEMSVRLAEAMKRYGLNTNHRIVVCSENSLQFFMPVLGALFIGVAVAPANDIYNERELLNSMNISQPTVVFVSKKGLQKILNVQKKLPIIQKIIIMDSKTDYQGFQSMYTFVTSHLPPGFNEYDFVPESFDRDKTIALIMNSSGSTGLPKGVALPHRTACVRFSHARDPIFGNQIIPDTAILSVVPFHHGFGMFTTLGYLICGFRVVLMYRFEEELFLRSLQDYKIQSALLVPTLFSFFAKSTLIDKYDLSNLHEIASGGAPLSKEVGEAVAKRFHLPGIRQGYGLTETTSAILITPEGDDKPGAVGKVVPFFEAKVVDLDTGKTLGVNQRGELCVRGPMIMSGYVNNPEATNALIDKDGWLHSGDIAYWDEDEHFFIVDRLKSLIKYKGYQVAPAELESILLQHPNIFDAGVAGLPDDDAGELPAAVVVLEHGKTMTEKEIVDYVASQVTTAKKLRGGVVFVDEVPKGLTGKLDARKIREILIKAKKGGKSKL
Chain of Cytochrome P450 2C19 (P33261 whole entry): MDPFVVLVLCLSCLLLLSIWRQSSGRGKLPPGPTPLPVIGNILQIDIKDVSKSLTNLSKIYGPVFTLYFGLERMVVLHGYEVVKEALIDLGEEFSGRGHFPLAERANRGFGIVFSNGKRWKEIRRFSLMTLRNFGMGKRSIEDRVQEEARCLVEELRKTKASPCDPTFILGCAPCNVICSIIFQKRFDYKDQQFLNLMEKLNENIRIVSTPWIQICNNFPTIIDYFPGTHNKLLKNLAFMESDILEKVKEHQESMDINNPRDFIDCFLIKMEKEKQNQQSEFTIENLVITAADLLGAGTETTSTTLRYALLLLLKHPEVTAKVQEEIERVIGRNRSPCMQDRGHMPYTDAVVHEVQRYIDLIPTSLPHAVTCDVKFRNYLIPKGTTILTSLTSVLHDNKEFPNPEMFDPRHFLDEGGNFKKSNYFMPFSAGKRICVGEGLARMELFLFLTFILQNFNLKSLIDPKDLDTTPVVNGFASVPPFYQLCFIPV
Chain of Cytochrome P450 2D6 (P10635 whole entry): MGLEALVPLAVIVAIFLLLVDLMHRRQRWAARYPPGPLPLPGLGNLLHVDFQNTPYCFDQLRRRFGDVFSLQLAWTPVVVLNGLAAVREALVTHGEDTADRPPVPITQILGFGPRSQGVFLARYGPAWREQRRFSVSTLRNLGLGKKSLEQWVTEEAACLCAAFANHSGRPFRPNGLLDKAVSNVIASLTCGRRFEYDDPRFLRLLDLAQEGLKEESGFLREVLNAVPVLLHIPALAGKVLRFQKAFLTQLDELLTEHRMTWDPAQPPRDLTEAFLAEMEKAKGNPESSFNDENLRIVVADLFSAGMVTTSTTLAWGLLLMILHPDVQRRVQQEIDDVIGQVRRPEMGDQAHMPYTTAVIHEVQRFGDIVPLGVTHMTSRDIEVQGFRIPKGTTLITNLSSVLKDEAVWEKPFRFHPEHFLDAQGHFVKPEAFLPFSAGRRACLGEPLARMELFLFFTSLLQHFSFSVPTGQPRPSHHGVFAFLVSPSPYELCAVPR
Chain of Cytochrome P450 3A4 (P08684 whole entry): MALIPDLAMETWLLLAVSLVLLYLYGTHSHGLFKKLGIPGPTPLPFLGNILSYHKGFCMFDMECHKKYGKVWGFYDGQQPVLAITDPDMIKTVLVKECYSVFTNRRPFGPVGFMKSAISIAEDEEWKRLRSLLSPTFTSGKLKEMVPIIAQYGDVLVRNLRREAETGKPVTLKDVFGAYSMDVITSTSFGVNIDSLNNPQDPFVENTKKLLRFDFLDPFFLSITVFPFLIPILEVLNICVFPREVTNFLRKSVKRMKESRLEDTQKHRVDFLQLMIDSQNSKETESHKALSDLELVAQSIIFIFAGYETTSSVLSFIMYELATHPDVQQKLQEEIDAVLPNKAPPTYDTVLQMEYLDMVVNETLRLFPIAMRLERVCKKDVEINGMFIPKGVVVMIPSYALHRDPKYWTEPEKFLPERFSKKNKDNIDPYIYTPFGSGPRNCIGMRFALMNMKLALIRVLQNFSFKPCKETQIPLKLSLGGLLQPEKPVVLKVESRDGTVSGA

For the compound `NC(=O)CC(NC(=O)c1ccc(Br)cc1)c1ccc(N2CCC(Br)CC2)c([N+](=O)[O-])c1` (stereo unspecified), the AC50 in [1] was 17.5 µM (active); in data set [2], 62.8 µM (active); in [3], 4.19 µM (active).
Regarding `CN(C(=O)c1cc(S(=O)(=O)N2CCc3ccccc32)cn1C)C1CCCCC1`, the concentration for a half-maximal effect (EC50) in [4] and in [5] was > 112 µM (not active) in each case.
Take `Cc1ccc(CS(=O)(=O)CCC(=O)NCCN2CCCC2)cc1`: the half-maximal activity concentration (AC50) in [6] is 25.1 µM (inconclusive); in data set [7] (read-out: AC50) it was 39.8 µM (inconclusive); in data set [8], 0.1 µM (inconclusive).
As to `Cc1cccc(CNc2cc(-c3ccccc3CN(C)C)ncn2)c1`, the values for the half-maximal activity concentration (AC50) entry in [7] and in data set [8] were “inconclusive” and 20 µM (inconclusive), respectively.
`Nc1ncnc(N)c1N=Nc1ccccc1`: the figures for the EC50 in [9] and in data set [10] were 11.2 µM (active) and 15.7 µM (active), respectively.
Regarding `Cc1nn(-c2ccccc2)c2c1C(c1ccncc1)C(C#N)=C(N)O2` (stereo unspecified), the AC50 in [11] is 12.7 µM (active). Further, the concentration giving a half-maximal response (EC50) in [12] is 3.05 µM (active).
For the compound `FC(F)(F)c1ccccc1-c1nccc(NCCN2CCOCC2)n1`, the results for the AC50 in data set [7] (read-out: AC50) and in data set [8] were 6.31 µM (inconclusive) and 12.6 µM (inconclusive), respectively.
In the case of `CCc1cccc(NC2c3ccccc3C(=O)N2c2cccnc2)c1` (stereo unspecified), the EC50 in data set [4] and in [5] was > 112 µM (not active) each time.
As to `N=C(N)SCc1cn(-c2ccccc2)nc1-c1ccc(Br)cc1`, the EC50 in [13] is 11.2 µM (active); in data set [14], 1.03 µM (active); in [12] it was 11 µM (active). In data set [11], the AC50 was 8.68 µM (active).
Turning to `Cc1cnc(C)c(N2CCN(Cc3nc(-c4ccccc4)no3)CC2)n1`, the EC50 in data set [4] and in [5] was > 112 µM (not active) in each case.
Regarding `CCOC(=O)CSc1nc(=O)c(NCC(=O)OC)n[nH]1`, the AC50 in data set [11] is 12 µM (active). The EC50 in data set [12] is 5.87 µM (active).
On to `O=C1Oc2ccccc2C(=O)/C1=C\N1C(=O)N/C(=C\c2ccccc2O)C1=O`, for which the AC50 was 3.98 µM (inconclusive) in data set [6], 0.316 µM (inconclusive) in data set [15], 6.31 µM (inconclusive) in [7] (read-out: AC50) and 3.98 µM (inconclusive) in [8].
On to `O=C(O)C1C2CCC(C2)C1C(=O)Nc1ccccc1` (stereo unspecified), for which the EC50 in data set [4] and in data set [5] was > 112 µM (not active) each time.
On to `CC1CCCC(C)N1C(=O)COC(=O)CNC(=O)c1sc2ccccc2c1Cl` (stereo unspecified), for which the EC50 in [4] and in [5] was > 112 µM (not active) each time.
As for `CCCS(=O)(=O)N1CCCC(C(=O)NCCCN2CCN(c3ccc(F)cc3)CC2)C1` (stereo unspecified), the AC50 in data set [8] was 5.01 µM (inconclusive).
`Cc1ccc(-n2nc(C)c3c2OC(N)=C(C#N)C3c2cccs2)cc1` (stereo unspecified): the values for the EC50 in data set [16], in [17] and in data set [18] were > 120 µM (not active), 33 µM (active) and > 120 µM (not active), respectively. The AC50 in [11] is 3.81 µM (active).
In the case of `O=C(N1CCN(Cc2ccccc2)CC1)C12CC3CC(CC(C3)C1)C2`, the EC50 in [4] and in data set [5] was > 112 µM (not active) each time.
In the case of `C=CCN(c1ccccc1)S(=O)(=O)c1cccc(C(=O)Nc2nc3ccccc3[nH]2)c1`, the concentration at half-maximal activity (AC50) in [1] was 27.8 µM (active); in [2] it was 49.7 µM (active); in data set [3], 10.1 µM (active).
As for `O=C(c1ccco1)c1cn(CC(=O)N2CCCc3ccccc32)c2ccccc12`, the EC50 in data set [4] and in [5] was > 112 µM (not active) each time.
`O=C(CN(Cc1ccccc1Cl)C(=O)c1ccc(CN2CCOCC2)o1)NCc1ccccc1`: the EC50 is 62.6 µM (active) in data set [4] and > 112 µM (not active) in data set [5].
As for `Nc1cccc(-c2nc3ccc(N)cc3s2)c1`, the EC50 in data set [4] was < 0.701 µM (active); in data set [5] it was 2.3 µM (active).
Take `CCOC(=O)COc1cccc2c(=O)n(CC(=O)N3CCN(C(=O)OCC)CC3)ccc12`: the EC50 in data set [4] and in [5] was > 112 µM (not active) in each case.
Consider `NCCCN1CCN(c2ccccc2)CC1`, for which the AC50 in [8] was 3.16 µM (inconclusive).
As for `COc1ccc(/C=C2/C(=O)N(c3ccccc3)N=C2C)cc1`, the half-maximal activity concentration (AC50) in data set [11] is 4.44 µM (active). Further, in [12], the EC50 was 1.7 µM (active).
In the case of `COc1cc(C2(c3ccc(O)c(OC)c3)C(=O)Nc3c(C)cc(Br)cc32)ccc1O`, in data set [11], the AC50 is 5.77 µM (active). Also, in data set [12], the EC50 is 14.4 µM (active).
For the compound `C/C(CC(=O)Nc1ccc(F)cc1F)=N\NC(=O)C(=O)N1CCCCC1`, the AC50 in data set [11] was 5 µM (active). Further, the EC50 in data set [12] was 1.8 µM (active).
Regarding `CCCCCC(=O)O[C@]1(C(C)=O)CC[C@H]2[C@@H]3CCC4=CC(=O)CC[C@]4(C)[C@H]3CC[C@@]21C` [HYDROXYPROGESTERONE CAPROATE], the half-maximal activity concentration (AC50) in data set [11] was 11.9 µM (active). The concentration giving a half-maximal response (EC50) in data set [12] was 4.88 µM (active).
